Test results reported in patent US7205123B2, “Recombinant materials for carotenoid production” (DSM IP Assets B.V., priority 1995, dated 2007).

Key:
[1] = tested on: Phaffia transformant G418-1; experiment: Survival of Phaffia transformant G418-1 on YepD agar with increasing G418; type: cell-based, Phaffia rhodozyma
Experimental: To determine the expression of the G418 resistance gene in pGB-Ph9, transformant G418-1 (EP 0 590 707 A1) was exposed to increasing concentrations of G418.
Two dilutions of a G418-1 culture were plated onto YepD agar containing 0–1000 μg/ml G418 (Table 1).

Phaffia (CBS6938) = experiment: Survival of untransformed Phaffia on YepD agar with increasing G418; type: cell-based, Phaffia rhodozyma; settings: Dil. 0 (OD600 = 5)

CN[C@@H]1[C@@H](O)[C@@H](O[C@@H]2[C@@H](O)[C@H](O[C@H]3O[C@H]([C@@H](C)O)[C@@H](O)[C@H](O)[C@H]3N)[C@@H](N)C[C@H]2N)OC[C@]1(C)O [G418]
Survival on YepD agar medium ([1]; G418 200 μg/ml, Dil. 10^-4 (OD600 = 7)): >300
Survival on YepD agar medium ([1]; G418 200 μg/ml, Dil. 10^-5 (OD600 = 7)): 70
Survival on YepD agar medium ([1]; G418 300 μg/ml, Dil. 10^-4 (OD600 = 7)): >300
Survival on YepD agar medium ([1]; G418 300 μg/ml, Dil. 10^-5 (OD600 = 7)): 61
Survival on YepD agar medium ([1]; G418 400 μg/ml, Dil. 10^-4 (OD600 = 7)): 212
Survival on YepD agar medium ([1]; G418 400 μg/ml, Dil. 10^-5 (OD600 = 7)): 13
Survival on YepD agar medium ([1]; G418 500 μg/ml, Dil. 10^-4 (OD600 = 7)): 10
Survival on YepD agar medium ([1]; G418 500 μg/ml, Dil. 10^-5 (OD600 = 7)): 2
plated cells survived ([1]; G418 600 μg/ml): less than 1%
Survival on YepD agar medium ([1]; G418 600 μg/ml, Dil. 10^-4 (OD600 = 7)): 0
Survival on YepD agar medium ([1]; G418 600 μg/ml, Dil. 10^-5 (OD600 = 7)): 0
Survival on YepD agar medium ([1]; G418 700 μg/ml, Dil. 10^-4 (OD600 = 7)): 0
Survival on YepD agar medium ([1]; G418 700 μg/ml, Dil. 10^-5 (OD600 = 7)): 0
Survival on YepD agar medium ([1]; G418 800 μg/ml, Dil. 10^-4 (OD600 = 7)): 0
Survival on YepD agar medium ([1]; G418 800 μg/ml, Dil. 10^-5 (OD600 = 7)): 0
Survival on YepD agar medium ([1]; G418 900 μg/ml, Dil. 10^-4 (OD600 = 7)): 0
Survival on YepD agar medium ([1]; G418 900 μg/ml, Dil. 10^-5 (OD600 = 7)): 0
Survival on YepD agar medium ([1]; G418 1000 μg/ml, Dil. 10^-4 (OD600 = 7)): 0
Survival on YepD agar medium ([1]; G418 1000 μg/ml, Dil. 10^-5 (OD600 = 7)): 0
Survival on YepD agar medium (Phaffia (CBS6938); G418 200 μg/ml): 0
Survival on YepD agar medium (Phaffia (CBS6938); G418 300 μg/ml): 0
Survival on YepD agar medium (Phaffia (CBS6938); G418 400 μg/ml): 0
Survival on YepD agar medium (Phaffia (CBS6938); G418 500 μg/ml): 0
Survival on YepD agar medium (Phaffia (CBS6938); G418 600 μg/ml): 0
Survival on YepD agar medium (Phaffia (CBS6938); G418 700 μg/ml): 0
Survival on YepD agar medium (Phaffia (CBS6938); G418 800 μg/ml): 0
Survival on YepD agar medium (Phaffia (CBS6938); G418 900 μg/ml): 0
Survival on YepD agar medium (Phaffia (CBS6938); G418 1000 μg/ml): 0
